According to ChEMBL document CHEMBL1154508, “Discovery of GSK345931A: An EP(1) receptor antagonist with efficacy in preclinical models of inflammatory pain” (Bioorg Med Chem Lett, 2009):
pEC50, pIC50: −log10 of the molar value.

Experiments:
[1] = Ratio of drug level in brain to blood in complete Freund's adjuvant-induced rat inflammatory pain model at 1 mg/kg, po after 1 hr; assay type: ADME, organism-based; parameters: dose 1 mg/kg, route oral
[2] = Drug level in blood of sub-chronic rat joint pain efficacy model satellite animal group at 5 mg/kg bid measured on day 1 after 1 hr post dose; assay type: ADME, organism-based; parameters: dose 5 mg/kg; conditions: read-out: Drug uptake
[3] = Drug level in blood of sub-chronic rat joint pain efficacy model satellite animal group at 5 mg/kg bid measured on day 5 after 1 hr post dose; assay type: ADME, organism-based; parameters: dose 5 mg/kg; conditions: read-out: Drug uptake
[4] = Drug level in blood of sub-chronic rat joint pain efficacy model satellite animal group at 20 mg/kg bid measured on day 5 after 1 hr post dose; assay type: ADME, organism-based; parameters: dose 20 mg/kg; conditions: read-out: Drug uptake
[5] = Drug level in brain of sub-chronic rat joint pain efficacy satellite animal group model at 5 mg/kg bid measured on day 5 after 1 hr post dose; assay type: ADME, organism-based; parameters: dose 5 mg/kg; conditions: read-out: Drug uptake
[6] = Drug level in brain of sub-chronic rat joint pain efficacy model satellite animal group at 20 mg/kg bid measured on day 5 after 1 hr post dose; assay type: ADME, organism-based; parameters: dose 20 mg/kg; conditions: read-out: Drug uptake
[7] = Ratio of drug level in brain to blood of sub-chronic rat joint pain efficacy model satellite animal group at 20 mg/kg bid measured on day 5; assay type: ADME, organism-based; parameters: dose 20 mg/kg
[8] = biological target: T1, Peroxisome proliferator-activated receptor alpha (Homo sapiens, UniProt Q07869); assay: Activity at PPARalpha
T1 sequence (Q07869 whole entry): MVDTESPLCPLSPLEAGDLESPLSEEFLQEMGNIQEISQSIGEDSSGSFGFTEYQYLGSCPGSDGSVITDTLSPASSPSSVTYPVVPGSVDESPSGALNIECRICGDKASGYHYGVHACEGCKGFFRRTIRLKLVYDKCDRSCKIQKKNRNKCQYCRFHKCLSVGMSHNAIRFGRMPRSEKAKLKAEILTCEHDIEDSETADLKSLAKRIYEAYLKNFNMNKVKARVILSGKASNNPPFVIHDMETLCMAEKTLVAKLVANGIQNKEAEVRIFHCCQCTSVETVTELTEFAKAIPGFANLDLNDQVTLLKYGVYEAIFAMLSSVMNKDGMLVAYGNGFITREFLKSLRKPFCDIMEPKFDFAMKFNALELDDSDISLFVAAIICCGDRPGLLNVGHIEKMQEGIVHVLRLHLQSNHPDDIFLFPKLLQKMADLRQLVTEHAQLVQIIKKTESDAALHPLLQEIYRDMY

[9] = biological target: T2, Peroxisome proliferator-activated receptor delta (Homo sapiens, UniProt Q03181); assay: Activity at PPARdelta
T2 sequence (Q03181 whole entry): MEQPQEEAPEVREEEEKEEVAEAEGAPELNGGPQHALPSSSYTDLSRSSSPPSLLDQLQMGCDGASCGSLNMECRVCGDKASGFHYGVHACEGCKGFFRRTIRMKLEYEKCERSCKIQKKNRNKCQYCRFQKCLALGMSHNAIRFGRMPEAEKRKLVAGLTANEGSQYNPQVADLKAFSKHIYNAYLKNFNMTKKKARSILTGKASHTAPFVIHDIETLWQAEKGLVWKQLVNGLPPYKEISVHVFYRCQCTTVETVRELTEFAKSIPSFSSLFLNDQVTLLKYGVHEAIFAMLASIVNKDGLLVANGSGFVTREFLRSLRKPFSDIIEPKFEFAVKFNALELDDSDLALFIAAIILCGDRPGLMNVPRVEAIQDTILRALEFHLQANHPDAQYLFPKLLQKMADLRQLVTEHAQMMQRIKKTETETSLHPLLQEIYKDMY

[10] = biological target: T3, Peroxisome proliferator-activated receptor gamma (Homo sapiens, UniProt P37231); assay: Activity at PPARgamma
T3 sequence (P37231 whole entry): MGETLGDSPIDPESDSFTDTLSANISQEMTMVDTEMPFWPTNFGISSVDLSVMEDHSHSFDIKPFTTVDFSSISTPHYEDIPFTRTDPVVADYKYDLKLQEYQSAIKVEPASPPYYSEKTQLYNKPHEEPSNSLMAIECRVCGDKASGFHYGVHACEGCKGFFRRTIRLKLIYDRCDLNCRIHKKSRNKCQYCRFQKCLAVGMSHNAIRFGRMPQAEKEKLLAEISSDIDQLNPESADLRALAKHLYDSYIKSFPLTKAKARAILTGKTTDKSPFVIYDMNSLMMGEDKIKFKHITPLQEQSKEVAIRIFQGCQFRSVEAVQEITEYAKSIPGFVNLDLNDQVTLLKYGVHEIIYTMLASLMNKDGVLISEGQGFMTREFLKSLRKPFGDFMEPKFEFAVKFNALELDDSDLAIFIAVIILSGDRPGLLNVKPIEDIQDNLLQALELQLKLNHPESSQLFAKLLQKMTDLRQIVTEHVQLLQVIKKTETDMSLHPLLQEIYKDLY

[11] = biological target: T4, Prostaglandin E2 receptor EP1 subtype (Rattus norvegicus, UniProt P70597); assay: Binding affinity to rat EP1 receptor
T4 sequence (P70597 whole entry): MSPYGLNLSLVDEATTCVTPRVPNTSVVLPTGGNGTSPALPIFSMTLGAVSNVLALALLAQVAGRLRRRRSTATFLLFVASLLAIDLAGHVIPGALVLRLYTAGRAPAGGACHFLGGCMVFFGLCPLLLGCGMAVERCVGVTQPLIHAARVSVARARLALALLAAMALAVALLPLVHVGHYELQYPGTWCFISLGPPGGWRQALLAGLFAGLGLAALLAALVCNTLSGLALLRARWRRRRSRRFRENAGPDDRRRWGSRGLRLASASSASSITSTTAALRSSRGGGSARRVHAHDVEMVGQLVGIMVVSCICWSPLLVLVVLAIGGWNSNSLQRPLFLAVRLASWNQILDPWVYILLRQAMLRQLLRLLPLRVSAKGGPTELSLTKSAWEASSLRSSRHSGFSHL

Liver microsomes [12] = assay: Metabolic stability assessed as intrinsic clearance per gram of rat liver microsomes; assay type: ADME, Microsome
[13] = Aqueous solubility in water after 2 hrs; assay type: physicochemical
[14] = Solubility in simulated gastric fluid after 2 hrs; assay type: physicochemical
[15] = Solubility in simulated gastric fluid after 24 hrs; assay type: physicochemical
[16] = Blood clearance in cynomolgus monkey at 1 mg/kg, iv; assay type: ADME, organism-based, Macaca fascicularis; parameters: dose 1 mg/kg, route intravenous
[17] = Half life in cynomolgus monkey at 1 mg/kg, iv; assay type: ADME, organism-based, Macaca fascicularis; parameters: dose 1 mg/kg, route intravenous; conditions: in vivo
Liver microsomes [18] = assay: Metabolic stability assessed as intrinsic clearance per gram of human liver microsomes; assay type: ADME, Microsome
[19] = Drug level in mouse brain at 3 mg/kg, po after 0.5 hrs; assay type: ADME, organism-based; parameters: dose 3 mg/kg, route oral; conditions: read-out: Drug uptake
[20] = Ratio of drug level in brain to blood in mouse at 3 mg/kg, po after 0.5 hr; assay type: ADME, organism-based; parameters: dose 3 mg/kg, route oral
[21] = Ratio of drug level in brain to blood in rat at 0.28 mg/kg/hr, iv for 18 hrs; assay type: ADME, organism-based; parameters: route intravenous
[22] = Steady state blood clearance in rat at 0.28 mg/kg/hr, iv for 18 hrs; assay type: ADME, organism-based; parameters: route intravenous
[23] = Drug level in brain of complete Freund's adjuvant-induced rat inflammatory pain model at 1 mg/kg, po after 1 hr; assay type: ADME, organism-based; parameters: dose 1 mg/kg, route oral; conditions: read-out: Drug uptake
[24] = Drug level in blood of complete Freund's adjuvant-induced rat inflammatory pain model at 1 mg/kg, po after 1 hr; assay type: ADME, organism-based; parameters: dose 1 mg/kg, route oral; conditions: read-out: Drug uptake
[25] = Drug level in blood of complete Freund's adjuvant-induced rat inflammatory pain model at 2 mg/kg, po after 1 hr; assay type: ADME, organism-based; parameters: dose 2 mg/kg, route oral; conditions: read-out: Drug uptake
[26] = Fraction unbound in rat brain

## CC(C)COc1ccc(Cl)cc1-c1ccccc1-c1cccc(C(=O)[O-])n1.[Na+]
[1]
  Kp at 1 h: 0.27
[2]
  concentration at 1 h: 5270 nM
[3]
  concentration at 1 h: 1660 nM
[4]
  concentration at 1 h: 6770 nM
[5]
  concentration at 1 h: 822 nM
[6]
  concentration at 1 h: 3630 nM
[7]
  Kp at 5 day: 0.5
[8]
  pEC50: < 5.00
[9]
  pEC50: < 5.00
[10]
  pEC50: 5.40
[11]
  pIC50: 7.90
Liver microsomes [12]
  CL: 0.7 mL/min/g
[13]
  solubility at 2 h: 499 µg/mL
[14]
  solubility at 2 h: 33 µg/mL
[15]
  solubility at 24 h: 11 µg/mL
[16]
  clearance: 26 mL/min/kg
[17]
  half-life: 48 min
Liver microsomes [18]
  CL: 1.9 mL/min/g
[19]
  concentration at 0.5 h: 277 nM
[20]
  Kp at 0.5 h: 0.24
[21]
  Kp at 18 h: 0.33
[22]
  clearance: 8 mL/min/kg
[23]
  concentration at 1 h: 317 nM
[24]
  concentration at 1 h: 948 nM
[25]
  concentration at 1 h: 2140 nM
[26]
  Fu: 0.53%
